Measurements: paper PMC7789354 (BMC Gastroenterology, 2021)

Tests used:
recombinant human CYP3A4 [1] = target: T1, recombinant human CYP3A4 (Homo sapiens, UniProt P08684); assay: OCT metabolism by recombinant human cytochrome P450 3A4; format: in vitro ADME; conditions: 10 min incubation, CYP3A4 2.5 mg/mL, NADPH; many different metabolites by LC–MS/MS
T1 construct: purchased BD Gentest (Supersomes)
Method: All incubations were performed at 37 °C in a water bath. Recombinant human cDNA-expressing P450 isozyme 3A4 (BD Gentest Supersomes) was carefully thawed on ice prior to each experiment. […] […] Control samples without NADPH and samples without OCT were also included. […] Each sample was tested 4 times.
(§1) Isocratic chromatographic separation was performed using a Hypersil BDS-C18 column (150 mm × 4.6 mm i.d., 5 µm; Dalian Elite Analytical Instruments Co. Ltd., China) maintained at room temperature. A mixture of 40% methanol-60% water with 0.1% formic acid (60:40, v/v) was used as the mobile phase at a flow rate of 0.5 mL/min. An API 3200 triple-quadrupole mass spectrometer (Applied Biosystems, Concord, Ontario, Canada) was operated with a Turbo Ionspray interface in positive ion mode. The ion spray voltage was set to + […], heater gas temperature to 500 °C, nebulizer gas (Gas 1) at 40 psi, heater gas (Gas 2) at 40 psi, curtain gas at 10 psi, and collision gas at 16 psi.

[2] = Bi-directional Caco-2 permeability (transport) assay; format: in vitro ADME, human
Method: (§2) Caco-2 cells (purchased from the Type Culture Collection of the Chinese Academy of Sciences, Shanghai, China) at passage 30 to 33 were used in this study. Cells were routinely cultured as previously described with minor modifications. Cells were seeded onto Transwell inserts in 12-well dishes at a density of 5 × 10^5 cells/well (#3401; 0.4 µm pore size, growth area of 1.13 cm^2, Corning, NY, USA), and the medium was replaced with D-Hanks solution every other day except for the treatment days.
Cell monolayer integrity was evaluated through the transepithelial electrical resistance (TEER) using a Millicell ERS resistance system (Millipore, Bedford, MA, USA) at 37 °C. Each TEER value was corrected for background resistance determined on an extracellular matrix-coated cell culture insert without cells.
Caco-2 transport study was performed as previously described. […] A to B assay was performed to determine the extent of OCT absorption, while B to A assay was performed to measure OCT secretion. As regard A to B assay, the apical (upper) chamber was filled with 1.6 mL test drug solution in HBSS, while the receiver basolateral (lower) compartment was filled with 0.6 mL HBSS alone. Conversely, in B to A assay the upper and lower chambers were filled with 0.6 mL HBSS and 1.6 mL test drug, respectively. […] The TEER value was determined at different incubation times to verify the integrity of the monolayer after buffer change. […] The permeability direction rate (PDR) was calculated by the ratio of Papp in the B to A direction versus that in the A to B direction, as follows: PDR=Papp(BtoA)/Papp(AtoB)
(§3) Frozen samples were thawed at room temperature prior to their preparation. A 200-µL aliquot of cell lysate containing 1 mL Tris, 99 mL D-Hank’s, and 200 µL methyl cyanide was mixed with the sample obtained from Caco-2 experiments. The mixture was then vortexed for 1 min and centrifuged at 12,000×g for 10 min. The supernatant was transferred to a clean glass tube and evaporated to dryness at 40 °C under nitrogen. A 10-μL aliquot was injected for LC − MS/MS analysis. A total of 200 μL methanol was added to a 50-μL sample of plasma, and the mixture was vortexed and centrifuged as described above to remove precipitated proteins. A total of 200 μL supernatant was transferred and evaporated as described for the Caco-2 samples. The residue was then diluted with 100 μL mobile phase and an aliquot of 10 μL was used for LC − MS/MS analysis.
as §1

recombinant human CYP3A4 [3] = target: T1, recombinant human CYP3A4; assay: CYP3A4 activity with and without OCT incubation (fluorescent quantitative detection kit); format: biochemical; conditions: OCT 400 mM
Method: All incubations were performed at 37 °C in a water bath. Recombinant human cDNA-expressing P450 isozyme 3A4 (BD Gentest Supersomes) was carefully thawed on ice prior to each experiment. […] After a 5-min pre-incubation at 37 °C, the reaction was started by the addition of NADPH and ended 30 min later by the addition of 500 µL methanol. Control samples without NADPH and samples without OCT were also included. […] Each sample was tested 4 times.

proximal jejunum = assay: In situ jejunal perfusion, OCT absorption into portal vein blood; format: in vivo, rat; conditions: for AUC, % of the correspondent control group (Group A1): PH rats; for AUC, % of the correspondent control group (Group A1) / AUC, % of the correspondent control (Group A; OCT only): portal vein blood 5-60 min; for AUC, % of the correspondent control (Group A; OCT only): healthy rats
Method: The experimental procedure was performed as previously reported. Briefly, the mean length of the proximal jejunum (approximately 2 cm distal to the ligament of Treitz) was 10 ± 1 cm. An oxygenated Krebs–Ringer bicarbonate buffer (KRB) solution (pH 7.4) containing 0.5 mM MgCl2, 4.5 mM KCl, 120 mM NaCl, 0.7 mM Na2HPO4, 1.5 mM NaH2PO4, 1.2 mM CaCl2, 15 mM NaHCO3, and 10 mM glucose was perfused at a flow rate of 0.4 mL/min using a peristaltic pump through an inlet tube kept at 37 °C. […] The AUC was calculated using the integral method. These experiments were performed both in healthy and PH rats; the latter was called Group A1, B1, C1, and D1 (n = 4 per group).
as §3, §1

CYP3A = assay: OCT metabolism by CYP3A in rat intestinal microsomes; format: in vitro ADME
Method: Microsomes from the small intestine of healthy rats and PH rats were obtained as previously described, and their protein concentration (0.53 ± 0.05 mg/mL and 0.52 ± 0.06 mg/mL total protein, respectively) was measured using the BCA method (Beijing Solarbio Science & Technology Co., Ltd). […] CYP3A activity was measured using a fluorescent quantitative detection kit (Genmed Scientifics Inc., U.S.A.) with the NADPH regenerating system after pre-incubation at 37 °C for 0, 2, 10, 20 or 30 min. […] The organic phase was evaporated to dryness and the OCT content in the residue was measured by LC–MS/MS.
Each sample was tested 3 times.
as §1

jejunum everted sac = assay: In vitro everted intestinal sac preparation, OCT uptake; format: in vitro ADME, rat; conditions: for AUC, % of the correspondent control group (Group A1): PH rats; for AUC, % of the correspondent control group (Group A1) / AUC, % of the correspondent control group (Group A): sac lumen 10-120 min; for AUC, % of the correspondent control group (Group A): healthy rats
Method: Rat jejunum (10 ± 1 cm) was transected approximately 2 cm distal to the ligament of Treitz. […] The AUC was calculated using the trapezoid method. These experiments were performed in both control and PH rats; the latter was called Group A1, B1, C1, and D1 (n = 4 per group).
as §1

Caco-2 cells = format: cell-based, human; conditions: OCT concentrations of 1, 10, and 50 µM; data not shown
Method: as §2

[4] = Caco-2, OCT 1 μM, Control (no inhibitor)
[5] = Caco-2, OCT 1 μM, MRP2 and P-gp inhibition
[6] = Caco-2, OCT 1 μM, MRP2 inhibition (probenecid 1 mM)
[7] = Caco-2, OCT 1 μM, P-gp inhibition (rhodamine 123 1 mM)
[8] = Caco-2, OCT 10 μM, Control (no inhibitor)
[9] = Caco-2, OCT 10 μM, MRP2 and P-gp inhibition
[10] = Caco-2, OCT 10 μM, MRP2 inhibition (probenecid 1 mM)
[11] = Caco-2, OCT 10 μM, P-gp inhibition (rhodamine 123 1 mM)
[12] = Caco-2, OCT 50 μM, Control (no inhibitor)
[13] = Caco-2, OCT 50 μM, MRP2 and P-gp inhibition
[14] = Caco-2, OCT 50 μM, MRP2 inhibition (probenecid 1 mM)
[15] = Caco-2, OCT 50 μM, P-gp inhibition (rhodamine 123 1 mM)
[16] = 10 µM OCT alone, PH rats versus healthy rats
[17] = 10 µM OCT plus 1 mM probenecid (Group C1)
[18] = 10 µM OCT plus 1 mM verapamil hydrochloride (Group B1)
[19] = 10 µM OCT plus 1 mM verapamil hydrochloride plus 1 mM probenecid (Group D1)
[20] = 10 µM OCT plus 1 mM probenecid (Group C)
[21] = 10 µM OCT plus 1 mM verapamil hydrochloride (Group B)
[22] = 10 µM OCT plus 1 mM verapamil hydrochloride plus 1 mM probenecid (Group D)

T1 sequence (P08684 whole entry): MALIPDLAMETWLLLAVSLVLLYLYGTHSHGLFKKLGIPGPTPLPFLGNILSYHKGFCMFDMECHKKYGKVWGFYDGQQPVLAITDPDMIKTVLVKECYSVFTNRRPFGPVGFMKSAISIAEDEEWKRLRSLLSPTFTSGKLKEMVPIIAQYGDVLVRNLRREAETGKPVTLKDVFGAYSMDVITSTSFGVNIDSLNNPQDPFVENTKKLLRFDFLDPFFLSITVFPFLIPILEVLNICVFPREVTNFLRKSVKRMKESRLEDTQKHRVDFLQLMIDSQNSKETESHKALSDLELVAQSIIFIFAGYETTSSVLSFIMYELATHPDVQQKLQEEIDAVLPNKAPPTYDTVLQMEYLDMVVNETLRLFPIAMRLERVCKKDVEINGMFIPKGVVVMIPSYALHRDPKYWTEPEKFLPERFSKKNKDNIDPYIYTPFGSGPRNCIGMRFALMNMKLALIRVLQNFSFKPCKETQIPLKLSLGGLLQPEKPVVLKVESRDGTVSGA

## C[C@@H](O)[C@@H]1NC(=O)[C@H](CCCCN)NC(=O)[C@@H](Cc2c[nH]c3ccccc23)NC(=O)[C@H](Cc2ccccc2)NC(=O)[C@@H](NC(=O)[C@H](N)Cc2ccccc2)CSSC[C@@H](C(=O)N[C@H](CO)[C@@H](C)O)NC1=O [OCT, octreotide]
Recombinant human CYP3A4 [1]
  Metabolism of OCT by recombinant human CYP3A4: CYP3A4 metabolized OCT
[2]; [4]
  Papp A→B: 0.005 ± 0.001 ×10⁻⁶ cm/s
  Papp B→A: 0.021 ± 0.003 ×10⁻⁶ cm/s
[2]; [5]
  Papp A→B: 0.022 ± 0.002 ×10⁻⁶ cm/s
  Papp B→A: 0.006 ± 0.001 ×10⁻⁶ cm/s
[2]; [6]
  Papp A→B: 0.007 ± 0.001 ×10⁻⁶ cm/s
  Papp B→A: 0.006 ± 0.001 ×10⁻⁶ cm/s
[2]; [7]
  Papp A→B: 0.01 ± 0.001 ×10⁻⁶ cm/s
  Papp B→A: 0.012 ± 0.002 ×10⁻⁶ cm/s
[2]; [8]
  Papp A→B: 0.127 ± 0.015 ×10⁻⁶ cm/s
  Papp B→A: 0.565 ± 0.073 ×10⁻⁶ cm/s
[2]; [9]
  Papp A→B: 0.368 ± 0.055 ×10⁻⁶ cm/s
  Papp B→A: 0.193 ± 0.021 ×10⁻⁶ cm/s
[2]; [10]
  Papp A→B: 0.149 ± 0.016 ×10⁻⁶ cm/s
  Papp B→A: 0.31 ± 0.025 ×10⁻⁶ cm/s
[2]; [11]
  Papp A→B: 0.168 ± 0.018 ×10⁻⁶ cm/s
  Papp B→A: 0.297 ± 0.024 ×10⁻⁶ cm/s
[2]; [12]
  Papp A→B: 0.23 ± 0.021 ×10⁻⁶ cm/s
  Papp B→A: 1.33 ± 0.16 ×10⁻⁶ cm/s
[2]; [13]
  Papp A→B: 1.73 ± 0.138 ×10⁻⁶ cm/s
  Papp B→A: 0.981 ± 0.082 ×10⁻⁶ cm/s
[2]; [14]
  Papp A→B: 0.353 ± 0.032 ×10⁻⁶ cm/s
  Papp B→A: 1.13 ± 0.097 ×10⁻⁶ cm/s
[2]; [15]
  Papp A→B: 1.19 ± 0.072 ×10⁻⁶ cm/s
  Papp B→A: 1.04 ± 0.084 ×10⁻⁶ cm/s
Recombinant human CYP3A4 [3]
  Change in activity of recombinant human CYP3A4 after pre-incubation with OCT: No changes
Proximal jejunum; [16]
  AUC of group A1 as % of group A: 96%
Proximal jejunum; [17]
  AUC, % of the correspondent control group (Group A1): 236.28%
Proximal jejunum; [18]
  AUC, % of the correspondent control group (Group A1): 384.61%
Proximal jejunum; [19]
  AUC, % of the correspondent control group (Group A1): 461.78%
Proximal jejunum; [20]
  AUC, % of the correspondent control (Group A; OCT only): 418.95%
Proximal jejunum; [21]
  AUC, % of the correspondent control (Group A; OCT only): 521.08%
Proximal jejunum; [22]
  AUC, % of the correspondent control (Group A; OCT only): 618.40%
CYP3A; intestinal microsomes of PH versus healthy rats, OCT 1000 ng/mL, 37 °C, p < 0.05
  OCT level, PH + OCT group versus N + OCT group: significantly lower
CYP3A; intestinal microsomes of healthy and PH rats, OCT 1000 ng/mL, ketoconazole 10 µM, p < 0.01
  OCT level in the presence of the CYP3A inhibitor ketoconazole: significantly and equally increased
CYP3A; rat intestinal microsomes, NADPH-generating system
  Metabolism of OCT by CYP3A: metabolized by CYP3A
Jejunum everted sac; [16]
  AUC of group A1 as % of group A: 21.54%
Jejunum everted sac; [17]
  AUC, % of the correspondent control group (Group A1): 128.23%
Jejunum everted sac; [18]
  AUC, % of the correspondent control group (Group A1): 151.82%
Jejunum everted sac; [19]
  AUC, % of the correspondent control group (Group A1): 165.33%
Jejunum everted sac; [20]
  AUC, % of the correspondent control group (Group A): 151.39%
Jejunum everted sac; [21]
  AUC, % of the correspondent control group (Group A): 176.22%
Jejunum everted sac; [22]
  AUC, % of the correspondent control group (Group A): 220.63%
Caco-2 cells
  Caco-2 cell death (LDH-cytotoxicity assay): No sign of Caco-2 cell death
